# Experimental data from US9586952B2, “Polycyclic estrogen receptor modulators and uses thereof” (SERAGON PHARMACEUTICALS, INC., priority 2013, dated 2017).
# How the values were obtained:
# MCF-7 cells = experiment: MCF7 Viability Assay (Breast Cancer Cell Viability Assay); assay type: cell-based; conditions: 5 days' compound exposure, CellTiter-Glo; for IC50: Homo sapiens, MCF7, 120 h
# Method in brief: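 Cells (320 per well, RPMI with 10% FBS and 20 mM HEPES) adhered overnight, then were exposed 5 days to an eleven-point semilog compound series, 0.3-0.000003 μM final. Viability read by CellTiter-Glo luminescence, background-subtracted, expressed as % of untreated cells.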
# ER-α = target: T1, ER-α (Homo sapiens, UniProt P03372); experiment: Breast Cancer Cell ER-α In Cell Western Assay (SP1); assay type: cell-based; conditions: MCF-7 cells, 4 or 24 hr post compound addition, SP1 antibody; for Emax: MCF7, read-out: ER-α In Cell Western Assay (SP1) Max Response; for DC50: read-out: ER-α In Cell Western Assay (SP1) IC50
# T1 construct: endogenous in cells; host or cells: MCF-7
# T1 sequence (P03372 1-595): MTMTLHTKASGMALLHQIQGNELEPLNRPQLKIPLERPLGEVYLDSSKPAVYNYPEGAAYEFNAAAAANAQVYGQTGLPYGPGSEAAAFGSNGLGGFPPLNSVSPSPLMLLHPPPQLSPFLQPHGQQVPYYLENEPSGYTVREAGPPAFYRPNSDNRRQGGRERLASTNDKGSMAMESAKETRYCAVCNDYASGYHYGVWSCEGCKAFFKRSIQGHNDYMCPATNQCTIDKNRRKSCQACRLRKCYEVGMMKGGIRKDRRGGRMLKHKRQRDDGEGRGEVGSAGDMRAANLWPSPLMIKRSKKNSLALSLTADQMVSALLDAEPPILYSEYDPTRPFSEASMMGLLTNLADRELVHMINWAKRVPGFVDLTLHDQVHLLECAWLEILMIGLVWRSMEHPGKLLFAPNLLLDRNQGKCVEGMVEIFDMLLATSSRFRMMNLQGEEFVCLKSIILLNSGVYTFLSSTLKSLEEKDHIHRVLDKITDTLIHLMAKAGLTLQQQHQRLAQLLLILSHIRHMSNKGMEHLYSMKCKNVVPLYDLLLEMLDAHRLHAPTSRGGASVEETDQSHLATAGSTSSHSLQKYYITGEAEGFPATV
# Method in brief: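 MCF-7 cells in RPMI with 10% charcoal-stripped FBS received an eleven-point semilog series, 0.3-0.000003 μM final, for 4 or 24 hr. After fixation, ER-α stained with SP1 antibody and IRDye 800 CW, DNA with DRAQ5; % ER = 800/700 nm intensity ratio relative to untreated cells.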
Compound,IC50 (MCF-7 cells) [nM],Emax (ER-α) [%],DC50 (ER-α) [nM],MCF7 Viability Assay Max Response (MCF-7 cells)
"O=C(O)/C=C/c1ccc(/C(=C(\c2ccc(C(F)(F)F)cc2Cl)C2CCC2)c2ccc(-c3cn[nH]c3)cc2)cc1 [Example 55, (E)-3-(4-((E)-1-(4-(1H-Pyrazol-4-yl)phenyl)-2-(2-chloro-4-(trifluoromethyl)phenyl)-2-cyclobutylvinyl)phenyl)acrylic acid]",≤ 100,≥ 40,≤ 100,++ (++ = a single % value ≧ 40%)
"O=C(O)/C=C/c1ccc(/C(=C(\c2ncc(C(F)(F)F)cc2Cl)C2CCC2)c2ccc(N3CCOCC3)cc2)cc1 [Example 57, (E)-3-(4-((E)-2-(3-Chloro-5-(trifluoromethyl)pyridin-2-yl)-2-cyclobutyl-1-(4-morpholinophenyl)vinyl)phenyl)acrylic acid]",≤ 100,≥ 40,≤ 100,++ (++ = a single % value ≧ 40%)
"N#Cc1cc(N2CCOCC2)ccc1/C(=C(/c1ccc(F)cc1Cl)C1CCC1)c1ccc(/C=C/C(=O)O)cc1 [Example 60, (E)-3-(4-((E)-2-(2-Chloro-4-fluorophenyl)-1-(2-cyano-4-morpholinophenyl)-2-cyclobutylvinyl)phenyl)acrylic acid]",≤ 100,≥ 40,≤ 100,++ (++ = a single % value ≧ 40%)
"COc1cc(C)c(/C(=C(\c2ccc(/C=C/C(=O)O)cc2)c2ccc(-c3cn[nH]c3)cc2)C2CCC2)cn1 [Example 61, (E)-3-(4-((E)-1-(4-(1H-Pyrazol-4-yl)phenyl)-2-cyclobutyl-2-(6-methoxy-4-methylpyridin-3-yl)vinyl)phenyl)acrylic acid]",≤ 100,≥ 40,≤ 100,++ (++ = a single % value ≧ 40%)

# Second part, led by results:
IC50 (MCF-7 cells) [nM],Emax (ER-α) [%],DC50 (ER-α) [nM],Compound,MCF7 Viability Assay Max Response (MCF-7 cells)
≤ 100,≥ 40,≤ 100,"O=C(O)/C=C/c1ccc(/C(=C(\c2ccc(F)cc2Cl)C2CCC2)c2ccc(-c3ccncc3)cc2)cc1 [Example 56, (E)-3-(4-((E)-2-(2-Chloro-4-fluorophenyl)-2-cyclobutyl-1-(4-(pyridin-4-yl)phenyl)vinyl)phenyl)acrylic acid]",++ (++ = a single % value ≧ 40%)
≤ 100,≥ 40,≤ 100,"O=C(O)/C=C/c1ccc(/C(=C(\c2ncc(C(F)(F)F)cc2Cl)C2CCC2)c2ccc(-c3cn[nH]c3)cc2)cc1 [Example 58, (E)-3-(4-((E)-1-(4-(1H-Pyrazol-4-yl)phenyl)-2-(3-chloro-5-(trifluoromethyl)pyridin-2-yl)-2-cyclobutylvinyl)phenyl)acrylic acid]",++ (++ = a single % value ≧ 40%)
≤ 100,≥ 40,≤ 100,"O=C(O)/C=C/c1ccc(/C(=C(\c2ncc(C(F)(F)F)cc2Cl)C2CCC2)c2ccc(-c3cncs3)cc2)cc1 [Example 59, (E)-3-(4-((E)-2-(3-Chloro-5-(trifluoromethyl)pyridin-2-yl)-2-cyclobutyl-1-(4-(thiazol-5-yl)phenyl)vinyl)phenyl)acrylic acid]",++ (++ = a single % value ≧ 40%)
≤ 100,≥ 40,≤ 100,"N#Cc1cc(Cl)ccc1/C(=C(\c1ccc(/C=C/C(=O)O)cc1)c1ccc(-c2cncs2)cc1)C1CCC1 [Example 62, (E)-3-(4-((E)-2-(4-Chloro-2-cyanophenyl)-2-cyclobutyl-1-(4-(thiazol-5-yl)phenyl)vinyl)phenyl)acrylic acid]",++ (++ = a single % value ≧ 40%)
≤ 100,≥ 40,≤ 100,"c1ccc(/C(=C(\c2ccc(OCCN3CCCC3)cc2)c2ccc(-c3cn[nH]c3)cc2)C2CCC2)cc1 [Example 63, (Z)-4-(4-(2-cyclobutyl-2-phenyl-1-(4-(2-(pyrrolidin-1-yl)ethoxy)phenyl)vinyl)phenyl)-1H-pyrazole]",++ (++ = a single % value ≧ 40%)
